Several values for one entry are separate records, joined by “and”; a condition that tells them apart may be missing. Identical values can stand only once. Like-named read-outs stand apart in the source and are kept apart here.
Experiment: Melphalan test dose and full dose pharmacokinetics in patients undergoing RIC allogeneic HCT for non-malignant disorders (Bayesian analysis of plasma concentrations)
Type: in vivo, human
Conditions: for AUC: human, plasma, intravenous; for Distribution of AUC (h * μg/mL): 3.5-≤6.5 / Distribution of AUC (h * μg/mL): <3.5 / Distribution of AUC (h * μg/mL): >6.5: share of transplants
Method: Patients undergoing allogeneic HCT for non-malignant disorders with a uniform RIC regimen that included alemtuzumab, fludarabine and melphalan were enrolled in this study. Full standard dose of melphalan was set as follows: • 140 mg/m^2 in patients having a body weight >10 kg, • 4.7 mg/kg in patients having a body weight <10 kg, and • 70 mg/m^2 in one patient with a radio sensitivity disorder.
The patients were given a test dose of melphalan (10% of the standard full dose) prior to start of their preparative regimen. Test dose of 10% of the full standard dose was determined to be the lowest dose level that would be measurable for a sufficiently long time interval (0-4h) to allow reliable AUC estimation. Accordingly, the test doses used in this study were 14 mg/m^2, 7 mg/m^2 and 0.47 mg/kg for patients having the standard full doses of 140 mg/m^2, 70 mg/m^2 and 4.7 mg/kg, respectively.
Blood samples were obtained for PK measurement after the administration of test dose and the full standard dose of melphalan. A total of 10 blood samples were obtained around each dose of melphalan: at baseline (5-10 min prior to start of the melphalan infusion of) and then approximately at 5 min, 15 min, 30 min, 45 min, 60 min, 2 hour, 2.5, 4, and 6 hours after the end of the melphalan infusion. Samples were collected on ice and transported to the institution's mass spectrometry laboratory for instant analysis by PS-MS/MS and conventional LC-MS/MS. Patient data collected for analysis included baseline organ function, presence of oral and gastrointestinal mucositis, renal and liver dysfunction including VOD, initial donor chimerism, graft rejection, and acute and chronic GVHD (aGVHD and cGVHD). The Common Terminology Criteria for Adverse Events (CTCAE) version 4.0 was used to evaluate adverse events. Acute and chronic GVHD were assessed by standardized published criteria. See, e.g., Glucksberg H, et al. Transplantation. 1974; 18:295-304 and Filipovich A H, et al. Biol Blood Marrow Transplant. 2005; 11:945-956. Interim analyses were completed after enrollment of 5 patients and 10 patients respectively to validate data following 25% and 50% of intended total patient enrollment. The AUC range that led to full donor chimerism without excess toxicity in majority of patients was selected to be the desired target AUC for full dose adjustment. In patients with baseline impaired organ function, personalized full dose melphalan was adjusted to limit toxicity if test dose PK predicted standard full dose AUC was higher than the desired target AUC range.
Melphalan levels were measured by validated PS-MS/MS and LC-MS\MS methods (Mirkou A, etc., J Chromatogr B Analyt Technol Biomed Life Sci. 2009; 877:3089-3096). For the PS-MS/MS method, all samples were analyzed using an automated Paper Spray ion source (Prosolia, Inc. Indianapolis, Ind.) interfaced with a TSQ Quantum Ultra mass spectrometer (Thermo Scientific, San Jose, Calif.) operated in selected reaction monitoring (SRM) mode. XCalibur software was used to control the MS and to process data. Specific precursor/product ions were simultaneously monitored for melphalan and its stable isotopically-labelled internal standard (D8-melphalan) by collision-induced dissociation (CID). Blood samples were prepared by spiking known amounts of melphalan standards and the internal standard into drug free human blood to establish a calibration curve and quality control samples. A small amount of patient's blood […] equilibrated with D8-melphalan solution was deposited on the Paper Spray cartridge and dried. A small volume of solvent optimized to efficiently extract the drug was applied to the paper. A stepwise high voltage (3-5 kV) was then applied inducing an electrospray ionization at the tip of the paper; the solvent evaporates from the droplets generating gas phase ions of the analyte, which then can be detected by a mass spectrometer. […]

[1] = median and range, 16 patients with normal organ function
[2] = median and range, 17 patients who received standard full dose
[3] = median and range, patients <10 kg, normal organ function, n=5, dose 0.47 mg/kg, 0.47 mg/kg
[4] = median and range, patients >10 kg, normal organ function, n=11, dose 14 mg/m^2
[5] = median and range, six patients (7 transplants) with impaired organ function, adjusted full dose
[6] = median, PK-adjusted full dose, N = 6 (7)

In the case of N[C@@H](Cc1ccc(N(CCCl)CCCl)cc1)C(=O)O [melphalan, 4-[Bis(2-chloroethyl)amino]-L-phenylalanine], the AUC (median, PK-adjusted full dose, N = 6 (7), read-out: Test dose AUC) is reported as 840 ng·h/mL, the AUC (median, Standard full dose, N = 16 (16), read-out: Test dose AUC) is reported as 550 ng·h/mL and the AUC (median, Standard full dose, N = 17 (17), read-out: Full dose AUC) is reported as 5500 ng·h/mL. For the same compound, the AUC (median, Total, N = 22 (23), read-out: Test dose AUC) was 590 ng·h/mL, the AUC (median, Total, N = 23 (24), read-out: Full dose AUC) was 5000 ng·h/mL and the AUC (patient with normal organ function who developed grade 4 gastrointestinal mucositis, read-out: full dose AUC) was 9500 ng·h/mL. For the same compound, the AUC (patients with impaired organ function, adjusted full dose, read-out: observed AUC based on the test dose PK guided adjustment) was 3900 ± 1400 ng·h/mL, the AUC (full dose melphalan, RIC HCT for non-malignant disorders, read-out: AUC range well tolerated without excess toxicity and sufficient to facilitate engraftment with full donor chimerism) was 3500 to 6500 ng·h/mL and the “FCLstd (body weight normalized clearance by allometric scaling)” value (individual patients, full dose) was 27.4 L/h/70 kg and 46.9 L/h/70 kg and 43.1 L/h/70 kg and 66.8 L/h/70 kg and 30.2 L/h/70 kg and 59.4 L/h/70 kg and 62.8 L/h/70 kg and 38.9 L/h/70 kg and 18.6 L/h/70 kg and 38.3 L/h/70 kg and 42.7 L/h/70 kg and 18.8 L/h/70 kg and 33.9 L/h/70 kg and 38.0 L/h/70 kg and 29.4 L/h/70 kg and 15.1 L/h/70 kg and 25.0 L/h/70 kg and 12.3 L/h/70 kg and 43.5 L/h/70 kg and 36.9 L/h/70 kg and 19.7 L/h/70 kg and 50.6 L/h/70 kg and 34.5 L/h/70 kg. The “Predicted FAUC (test dose PK evaluation)” value (individual patients, full dose AUC predicted from test dose PK) was 2.9 mg · h/L and 6.5 mg · h/L and 5.9 mg · h/L and 5.1 mg · h/L and 5.2 mg · h/L (3×) and 5.7 mg · h/L (2×) and 14.0 mg · h/L and 14.5 mg · h/L and 7.2 mg · h/L and 5.6 mg · h/L and 4.8 mg · h/L and 6.1 mg · h/L and 5.5 mg · h/L and 11.6 mg · h/L and 11.1 mg · h/L and 16.8 mg · h/L and 7.1 mg · h/L and 13.8 mg · h/L and 4.4 mg · h/L and 7.4 mg · h/L, the “TCLstd (test dose body weight normalized clearance by allometric scaling)” value (individual patients, test dose) was 47.3 L/h/70 kg and 44.0 L/h/70 kg and 38.8 L/h/70 kg and 56.2 L/h/70 kg and 52.2 L/h/70 kg and 47.8 L/h/70 kg and 49.5 L/h/70 kg and 12.1 L/h/70 kg and 45.2 L/h/70 kg and 18.5 L/h/70 kg and 33.1 L/h/70 kg and 27.5 L/h/70 kg and 33.9 L/h/70 kg and 27.0 L/h/70 kg and 32.3 L/h/70 kg and 13.6 L/h/70 kg and 15.7 L/h/70 kg and 11.3 L/h/70 kg and 35.9 L/h/70 kg and 49.6 L/h/70 kg and 19.2 L/h/70 kg and 67.1 L/h/70 kg and 32.8 L/h/70 kg and the “predicted AUC for standard full dose melphalan” value [1] was 2.9 to 11.1 µg·h/mL and 5.5 µg·h/mL. The “test dose AUC” value [1] was 0.29 to 1.1 µg·h/mL, the “full dose AUC” value [2] was 3.0 to 9.5 µg·h/mL and the full dose clearance [2] was 38.3 L/h/70 kg and 25.0-66.8 L/h/70 kg. For the same compound, the “test dose AUC” value [3] was 0.48 to 1.11 µg·h/mL, the test dose clearance [3] was 27.6 L/hr./70 kg and 15.7-34.0 L/hr./70 kg and the “full dose AUC” value (median and range, patients <10 kg, standard dose 4.7 mg/kg, n=6, 4.7 mg/kg) was 3.0 to 6.9 µg·h/mL. For the same compound, the “test dose AUC” value [4] was 0.29 to 0.72 µg·h/mL, the test dose clearance [4] was 47.8 L/h/70 kg and 33.1-67.2 L/h/70 kg and the “full dose AUC” value (median and range, patients >10 kg, standard dose 140 mg/m2, n=11) was 4.1 to 9.5 µg·h/mL. For the same compound, the “test dose PK predicted AUC for standard full dose” value (median and range, six patients (7 transplants) with impaired organ function) was 13.8 µg·h/mL and 11.1 to 16.4 µg·h/mL, the “test dose AUC” value [5] was 0.7 to 1.45 µg·h/mL and the test dose clearance [5] was 18.5 L/hr./70 kg and 11.3-35.9 L/hr./70 kg. For the same compound, the “Test dose PK predicted full close AUC” value (median, PK-adjusted full dose) was 13.8 µg·h/mL, the “Full dose CL” value [6] was 18.8 L/h/70 kg and the “Test dose CL” value [6] was 45.2 L/h/70 kg. For the same compound, the “Test dose PK predicted full close AUC” value (median, Standard full dose) was 5.7 µg·h/mL, the “Test dose CL” value (median, Standard full dose, N = 16 (16)) was 18.5 L/h/70 kg and the “Full dose CL” value (median, Standard full dose, N = 17 (17)) was 38.3 L/h/70 kg. The “Test dose PK predicted full close AUC” value (median, Total) was 5.9 µg·h/mL, the “Test dose CL” value (median, Total, N = 22 (23)) was 33.9 L/h/70 kg and the “Full dose CL” value (median, Total, N = 23 (24)) was 37.4 L/h/70 kg. The “full dose AUC if given standard full dose” value (patients with impaired organ function, predicted from test dose PK) was 11.0 ± 3.6 µg·h/mL, the “Distribution of AUC (h * μg/mL): 3.5-≤6.5” value (shortened to “Distribution … 3.5-≤6.5”) (PK-adjusted full dose) was 85.7% and the “Distribution of AUC (h * μg/mL): <3.5” value (PK-adjusted full dose) was 14.3%. The “Distribution of AUC (h * μg/mL): >6.5” value (PK-adjusted full dose) was 0.0%, the “Distribution … 3.5-≤6.5” value (Standard full dose) was 70.6% and the “Distribution of AUC (h * μg/mL): <3.5” value (Standard full dose) was 5.9%. For the same compound, the “Distribution of AUC (h * μg/mL): >6.5” value (Standard full dose) was 23.5%, the “Distribution … 3.5-≤6.5” value (Total) was 75.0% and the “Distribution of AUC (h * μg/mL): <3.5” value (Total) was 8.3%. For the same compound, the “Distribution of AUC (h * μg/mL): >6.5” value (Total) was 16.7%.

From patent US20220205982A1 (CHILDREN'S HOSPITAL MEDICAL CENTER, priority 2019, published 2022)
